Measurements reported in patent US10004701B2, “Methods and compositions for treating infection” (UNIVERSITY OF ROCHESTER, priority 2012, dated 2018).
Structures can show the parent of a compound that is named as a salt. Where two headings read alike, the source gives them in different places.

How the values were obtained:
Assay in all cases: AK assay 384-well format, Prestwick library screening
P. aeruginosa = assay type: cell-based, Pseudomonas aeruginosa; conditions: Pseudomonas aeruginosa, 3 h, 50 μM final drug concentration
[1] = tested on: S. aureus strain USA300-0114; assay type: cell-based, Staphylococcus aureus; conditions: Staphylococcus aureus, USA300, 3 h, 50 μM final drug concentration
[2] = tested on: A. baumannii strain 98-37-09; assay type: cell-based, Acinetobacter baumannii; conditions: Acinetobacter baumannii, 983709, 3 h, 50 μM final drug concentration
K. pneumoniae = assay type: cell-based, Klebsiella pneumoniae; conditions: Klebsiella pneumoniae, 3 h, 50 μM final drug concentration
E. faecium = assay type: cell-based, Enterococcus faecium; conditions: Enterococcus faecium, 3 h, 50 μM final drug concentration
E. coli = assay type: cell-based, Escherichia coli; conditions: Escherichia coli, 3 h, 50 μM final drug concentration
E. cloacae = assay type: cell-based, Enterobacter cloacae; conditions: Enterobacter cloacae, 3 h, 50 μM final drug concentration
[3] = planktonic P. aeruginosa, positive cutoff 3-fold increase, read-out: AK-based Prestwick library screening result, P. aeruginosa (fold increase in extracellular AK activity)
[4] = planktonic S. aureus, positive cutoff 3-fold increase, read-out: AK-based Prestwick library screening result, S. aureus (fold increase in extracellular AK activity)
[5] = planktonic A. baumannii, positive cutoff 3-fold increase, read-out: AK-based Prestwick library screening result, A. baumannii (fold increase in extracellular AK activity)
[6] = planktonic K. pneumoniae, positive cutoff 3-fold increase, read-out: AK-based Prestwick library screening result, K. pneumoniae (fold increase in extracellular AK activity)
[7] = planktonic E. faecium, positive cutoff 3-fold increase, read-out: AK-based Prestwick library screening result, E. faecium (fold increase in extracellular AK activity)
[8] = planktonic E. coli, positive cutoff 3-fold increase, read-out: AK-based Prestwick library screening result, E. coli (fold increase in extracellular AK activity)
[9] = planktonic E. cloacae, positive cutoff 3-fold increase, read-out: AK-based Prestwick library screening result, E. cloacae (fold increase in extracellular AK activity)
[10] = cutoff for positive-scoring molecules 3-fold increase, read-out: AK-based Prestwick Library Screening Results, P. aeruginosa (fold increase in extracellular AK activity)
[11] = cutoff for positive-scoring molecules 3-fold increase, read-out: AK-based Prestwick Library Screening Results, S. aureus (fold increase in extracellular AK activity)
[12] = cutoff for positive-scoring molecules 3-fold increase, read-out: AK-based Prestwick Library Screening Results, A. baumannii (fold increase in extracellular AK activity)
[13] = cutoff for positive-scoring molecules 3-fold increase, read-out: AK-based Prestwick Library Screening Results, K. pneumoniae (fold increase in extracellular AK activity)
[14] = cutoff for positive-scoring molecules 3-fold increase, read-out: AK-based Prestwick Library Screening Results, E. faecium (fold increase in extracellular AK activity)
[15] = cutoff for positive-scoring molecules 3-fold increase, read-out: AK-based Prestwick Library Screening Results, E. coli (fold increase in extracellular AK activity)
[16] = cutoff for positive-scoring molecules 3-fold increase, read-out: AK-based Prestwick Library Screening Results, E. cloacae (fold increase in extracellular AK activity)

## C[C@@H]1C[C@H]2[C@@H]3C[C@H](F)C4=CC(=O)C=C[C@]4(C)[C@@]3(Cl)[C@@H](O)C[C@]2(C)[C@H]1C(=O)COC(=O)C(C)(C)C [Clocortolone pivalate]
P. aeruginosa; [3]
  fold induction at 50 µM: 1
[1]; [4]
  fold induction at 50 µM: 1.1
[2]; [5]
  fold induction at 50 µM: 1.2
K. pneumoniae; [6]
  fold induction at 50 µM: 1
E. faecium; [7]
  fold induction at 50 µM: 1.1
E. coli; [8]
  fold induction at 50 µM: 1
E. cloacae; [9]
  fold induction at 50 µM: 1.6

## C=C1[C@@H]2CC[C@H]3[C@]4(C)C[C@H](O[C@@H]5O[C@H](CO)[C@@H](OS(=O)(=O)O)[C@H](OS(=O)(=O)O)[C@H]5OC(=O)CC(C)C)C[C@@H](C(=O)O)[C@H]4CC[C@]3(C2)[C@@H]1O [Atractyloside potassium salt]
P. aeruginosa; planktonic, […], read-out: AK-based Prestwick Library Screening Results, P. aeruginosa (fold increase in extracellular AK activity)
  fold induction at 50 µM: 0.6
[1]; planktonic, […], read-out: AK-based Prestwick Library Screening Results, S. aureus (fold increase in extracellular AK activity)
  fold induction at 50 µM: 0.7
[2]; planktonic, […], read-out: AK-based Prestwick Library Screening Results, A. baumannii (fold increase in extracellular AK activity)
  fold induction at 50 µM: 0.8
K. pneumoniae; planktonic, […], read-out: AK-based Prestwick Library Screening Results, K. pneumoniae (fold increase in extracellular AK activity)
  fold induction at 50 µM: 0.6
E. faecium; planktonic, […], read-out: AK-based Prestwick Library Screening Results, E. faecium (fold increase in extracellular AK activity)
  fold induction at 50 µM: 0.9
E. coli; planktonic, […], read-out: AK-based Prestwick Library Screening Results, E. coli (fold increase in extracellular AK activity)
  fold induction at 50 µM: 0.7
E. cloacae; planktonic, […], read-out: AK-based Prestwick Library Screening Results, E. cloacae (fold increase in extracellular AK activity)
  fold induction at 50 µM: 0.8

## CCCCCN(CCCCC)C(=O)C(CCC(=O)O)NC(=O)c1ccc(Cl)c(Cl)c1 (centres unmarked) [Lorglumide sodium salt]
P. aeruginosa; planktonic, cutoff for positive-scoring molecules 3-fold increase, read-out: AK-based Prestwick Library Screening Results, P. aeruginosa (fold increase in extracellular AK activity)
  fold induction at 50 µM: 0.9
[1]; planktonic, cutoff for positive-scoring molecules 3-fold increase, read-out: AK-based Prestwick Library Screening Results, S. aureus (fold increase in extracellular AK activity)
  fold induction at 50 µM: 0.3
[2]; planktonic, cutoff for positive-scoring molecules 3-fold increase, read-out: AK-based Prestwick Library Screening Results, A. baumannii (fold increase in extracellular AK activity)
  fold induction at 50 µM: 0.8
K. pneumoniae; planktonic, cutoff for positive-scoring molecules 3-fold increase, read-out: AK-based Prestwick Library Screening Results, K. pneumoniae (fold increase in extracellular AK activity)
  fold induction at 50 µM: 0.7
E. faecium; planktonic, cutoff for positive-scoring molecules 3-fold increase, read-out: AK-based Prestwick Library Screening Results, E. faecium (fold increase in extracellular AK activity)
  fold induction at 50 µM: 1
E. coli; planktonic, cutoff for positive-scoring molecules 3-fold increase, read-out: AK-based Prestwick Library Screening Results, E. coli (fold increase in extracellular AK activity)
  fold induction at 50 µM: 0.9
E. cloacae; planktonic, cutoff for positive-scoring molecules 3-fold increase, read-out: AK-based Prestwick Library Screening Results, E. cloacae (fold increase in extracellular AK activity)
  fold induction at 50 µM: 1.3

## CNCCCN1c2ccccc2CCc2ccccc21 [Desipramine hydrochloride]
P. aeruginosa; planktonic P. aeruginosa, cutoff for positive-scoring molecules 3-fold increase, read-out: AK-based Prestwick Library Screening Results, P. aeruginosa (increase in extracellular AK activity)
  fold induction at 50 µM: 0.9
[1]; planktonic S. aureus, cutoff for positive-scoring molecules 3-fold increase, read-out: AK-based Prestwick Library Screening Results, S. aureus (increase in extracellular AK activity)
  fold induction at 50 µM: 0.7
[2]; planktonic A. baumannii, cutoff for positive-scoring molecules 3-fold increase, read-out: AK-based Prestwick Library Screening Results, A. baumannii (increase in extracellular AK activity)
  fold induction at 50 µM: 0.7
K. pneumoniae; planktonic K. pneumoniae, cutoff for positive-scoring molecules 3-fold increase, read-out: AK-based Prestwick Library Screening Results, K. pneumoniae (increase in extracellular AK activity)
  fold induction at 50 µM: 0.7
E. faecium; planktonic E. faecium, cutoff for positive-scoring molecules 3-fold increase, read-out: AK-based Prestwick Library Screening Results, E. faecium (increase in extracellular AK activity)
  fold induction at 50 µM: 0.8
E. coli; planktonic E. coli, cutoff for positive-scoring molecules 3-fold increase, read-out: AK-based Prestwick Library Screening Results, E. coli (increase in extracellular AK activity)
  fold induction at 50 µM: 0.9
E. cloacae; planktonic E. cloacae, cutoff for positive-scoring molecules 3-fold increase, read-out: AK-based Prestwick Library Screening Results, E. cloacae (increase in extracellular AK activity)
  fold induction at 50 µM: 0.8

## C=C1C[C@]23C[C@@]1(O)CC[C@H]2[C@@]12C=C[C@H](O)[C@@](C)(C(=O)O1)[C@H]2[C@@H]3C(=O)O [Gibberellic acid]
P. aeruginosa; [10]
  fold induction at 50 µM: 0.4
[1]; [11]
  fold induction at 50 µM: 0.4
[2]; [12]
  fold induction at 50 µM: 0.4
K. pneumoniae; [13]
  fold induction at 50 µM: 0.5
E. faecium; [14]
  fold induction at 50 µM: 0.8
E. coli; [15]
  fold induction at 50 µM: 0.5
E. cloacae; [16]
  fold induction at 50 µM: 0.4

## Cc1c(OCC(F)(F)F)ccnc1C[S+]([O-])c1nc2ccccc2[nH]1 (centres unmarked) [Lansoprazole]
P. aeruginosa; [3]
  fold induction at 50 µM: 0.7
[1]; [4]
  fold induction at 50 µM: 0.2
[2]; [5]
  fold induction at 50 µM: 0.6
K. pneumoniae; [6]
  fold induction at 50 µM: 0.5
E. faecium; [7]
  fold induction at 50 µM: 0.6
E. coli; [8]
  fold induction at 50 µM: 0.6
E. cloacae; [9]
  fold induction at 50 µM: 1

## CC(Oc1ccccc1)C(=O)N[C@@H]1C(=O)N2[C@@H]1SC(C)(C)[C@@H]2C(=O)O (some centres unmarked) [Phenethicillin potassium salt]
P. aeruginosa; planktonic, cutoff for positive 3-fold increase, read-out: AK-based Prestwick Library Screening Results, P. aeruginosa (fold increase in extracellular AK activity)
  fold induction at 50 µM: 0.4
[1]; planktonic, cutoff for positive 3-fold increase, read-out: AK-based Prestwick Library Screening Results, S. aureus (fold increase in extracellular AK activity)
  fold induction at 50 µM: 0.6
[2]; planktonic, cutoff for positive 3-fold increase, read-out: AK-based Prestwick Library Screening Results, A. baumannii (fold increase in extracellular AK activity)
  fold induction at 50 µM: 0.8
K. pneumoniae; planktonic, cutoff for positive 3-fold increase, read-out: AK-based Prestwick Library Screening Results, K. pneumoniae (fold increase in extracellular AK activity)
  fold induction at 50 µM: 0.5
E. faecium; planktonic, cutoff for positive 3-fold increase, read-out: AK-based Prestwick Library Screening Results, E. faecium (fold increase in extracellular AK activity)
  fold induction at 50 µM: 1
E. coli; planktonic, cutoff for positive 3-fold increase, read-out: AK-based Prestwick Library Screening Results, E. coli (fold increase in extracellular AK activity)
  fold induction at 50 µM: 0.5
E. cloacae; planktonic, cutoff for positive 3-fold increase, read-out: AK-based Prestwick Library Screening Results, E. cloacae (fold increase in extracellular AK activity)
  fold induction at 50 µM: 0.3

## CN(C)[C@@H]1C(O)=C(C(=O)NCN2CCCC2)C(=O)[C@@]2(O)C(O)=C3C(=O)c4c(O)cccc4[C@@](C)(O)[C@H]3C[C@@H]12 [Rolitetracycline]
P. aeruginosa; [10]
  fold induction at 50 µM: 1.1
[1]; [11]
  fold induction at 50 µM: 1.1
[2]; [12]
  fold induction at 50 µM: 1.2
K. pneumoniae; [13]
  fold induction at 50 µM: 1
E. faecium; [14]
  fold induction at 50 µM: 1
E. coli; [15]
  fold induction at 50 µM: 1.1
E. cloacae; [16]
  fold induction at 50 µM: 1.7
